Reference: patent US9199200B2, “Submerged membrane bioreactor system and biological methods for removing bisphenol compounds from municipal wastewater” (Centre de Recherche Industrielle de Québec (CRIQ), priority 2010, dated 2015)

Key:
[1] = Equilibrium adsorption isotherms of BPA on inactivated sludge (Freundlich, Langmuir); format: physicochemical
Procedure: To elucidate the plausible mechanisms of the biological removal of the bisphenol compounds, the removal of BPA was tested (adsorption on the biomass versus biological oxidation), and additional experiments are carried out in Erlenmeyer shake flasks containing either activated sludge or inactivated sludge in the presence of BPA. The sludge used for the tests is withdrawn from the SMBR unit. Prior to BPA addition in activated sludge sample, sludge is initially centrifuged at 8000 rpm at 4° C. for 10 min and softly washed. The inactivated sludge is prepared by subjecting sludge samples to a sterilization by adding 1.0 mL HgSO4 (20 g/L) to 200 mL of sludge. Then, the sterilized and centrifuged sample sludge is placed in conical flasks and shaken at 150 rpm at 22±2° C. for 2 h, and then centrifuged at 8000 rpm at 4° C. for 10 min. Different concentrations of BPA (0.45 to 18.2 mg/L) are added in the same mass of sludge (3.0 g of sludge diluted to 200 mL with milli-Q water). The concentration of total suspended solid (sludge) in the flask was 15 g TSS L^−1, which is similar to that observed in the SMBR system of the present invention. Three types of experiments are successively carried out. The first set tests consists in evaluating the adsorption capacity of BPA on sludge. For that, two Erlenmeyer shake flasks containing 200 mL of activated sludge (15 g TSS L^−1) are respectively contaminated by 5 and 10 mg/L of BPA. The flasks are shaken at 150 rpm at 22±2° C., pH=7±0.5 for 24 h and samples are taken in regular time intervals, and the amount of BPA adsorbed is determined by measuring the residual BPA concentrations in solution The same assay is carried out using inactivated sludge. Subsequently, isotherm adsorption experiments are carried out using different concentrations of BPA (0.45-18.2 mg/L) spiked in a same mass of sludge (200 ml of inactivated sludge at 15 g TSS/L). The flasks are shaken at 150 rpm for 2 h and samples are taken for analysis.
By analogy, the amount of BPA adsorbed on sludge at equilibrium (qe, mg/g) and the sorption efficiency is determined according to equations (1) described above. The specific adsorption coefficient (KD) can also be calculated. The coefficient KD is the ratio between the amount of BPA adsorbed on sludge at equilibrium (qe) and the residual (Ce) concentrations, according to the following equation (Eq. (3)): […]
Thermodynamic equilibrium constants are determined in order to evaluate adsorption affinity of BPA on sludge. The amount of BPA adsorbed on sludge is calculated using the following equation (Eq. (10)): […]
Adsorption isotherms allow presenting the variation of sorption with respect to the concentration of sorbate in the bulk solution at constant temperature. Equilibrium adsorptions of BPA on the biomass using Freundlich and Langmuir models are studied. These isotherms describe BPA uptake per unit weight of sorbent (qe) in function of the equilibrium sorbate concentration in the bulk solution (Ce). The Freundlich isotherm is described by the following equation (Eq. (11)) and is illustrated in FIG. 12: […]
The Langmuir isotherm is described by the following equation (Eq. (12)) and is represented in FIG. 13: […]
In fact, Langmuir adsorption isotherm is valid for monolayer sorption on a surface containing a limited number of sites, predicting a homogenous distribution of sorption energy. The reorganization of Eq. (12) leads to the following equation (Eq. (13)) as the linearised form of the Langmuir isotherm: […]
From Langmuir isotherm, it is possible to define a dimensionless constant (RL) taking into account the separation factor of equilibrium parameter. This dimensionless constant allows predicting if the adsorption system is favorable or not, as explained in Shokoohi et al. as cited above and by Gao et al. Journal of Fluorine Chemistry 130 (2009) 1035-1041. RL can be evaluated using the following equation (Eq. (14)): […]

aquatic ecosystems = details: Oehlmann et al.; cited from earlier work

In the case of `CC(C)(c1ccc(O)cc1)c1ccc(O)cc1` [BPA, 2,2-Bis(4-hydroxyphenyl)propane], the “Freundlich parameter shown as formula MATH:00015” value [1] is reported as 0.819, the “KL (Langmuir constant)” value [1] is reported as 0.370 L/g and the “RL (dimensionless separation factor, Langmuir)” value [1] is reported as 0.11. For the same compound, the “b (Langmuir constant)” value [1] was 0.444 L/mg, the “kf (Freundlich isotherm constant)” value [1] was 0.231 mg^1-1/n g^−1 · L^1/n and the “n (Freundlich constant, adsorption intensity)” value [1] was 1.22. The “qm, maximum BPA concentration capable of being adsorbed on sludge (Langmuir, KL/b)” value [1] was 0.833 mg/g, the Adsorbed fraction ([1]; C0 0.45 mg/L) was 84.4% and the “Equilibrium liquid phase concentration of BPA (Ce)” value ([1]; C0 0.45 mg/L) was 0.07 mg/L. For the same compound, the Adsorbed fraction ([1]; C0 0.91 mg/L) was 85.7%, the “Equilibrium liquid phase concentration of BPA (Ce)” value ([1]; C0 0.91 mg/L) was 0.13 mg/L and the Adsorbed fraction ([1]; C0 1.82 mg/L) was 78.6%. The “Equilibrium liquid phase concentration of BPA (Ce)” value ([1]; C0 1.82 mg/L) was 0.39 mg/L, the Adsorbed fraction ([1]; C0 4.74 mg/L) was 77.0% and the “Equilibrium liquid phase concentration of BPA (Ce)” value ([1]; C0 4.74 mg/L) was 1.09 mg/L. For the same compound, the Adsorbed fraction ([1]; C0 9.47 mg/L) was 76.0%, the “Equilibrium liquid phase concentration of BPA (Ce)” value ([1]; C0 9.47 mg/L) was 2.27 mg/L and the Adsorbed fraction ([1]; C0 13.67 mg/L) was 74.8%. For the same compound, the “Equilibrium liquid phase concentration of BPA (Ce)” value ([1]; C0 13.67 mg/L) was 3.45 mg/L, the Adsorbed fraction ([1]; C0 18.22 mg/L) was 70.5% and the “Equilibrium liquid phase concentration of BPA (Ce)” value ([1]; C0 18.22 mg/L) was 5.37 mg/L. For the same compound, the “Adsorption removal of BPA on sludge” value ([1]; of initial liquid phase concentration, 0.45-18.2 mg/L) was 70.5 to 85.7% and the “Concentration of BPA with adverse effects in aquatic ecosystems” value (aquatic ecosystems) was “below 1.0 μg/L”.
